A word on the IC50: it is the point on the concentration scale where inhibition reaches its midpoint.

The experiment addresses T1, Renin (Homo sapiens, UniProt P00797).
T1 sequence (P00797 whole entry): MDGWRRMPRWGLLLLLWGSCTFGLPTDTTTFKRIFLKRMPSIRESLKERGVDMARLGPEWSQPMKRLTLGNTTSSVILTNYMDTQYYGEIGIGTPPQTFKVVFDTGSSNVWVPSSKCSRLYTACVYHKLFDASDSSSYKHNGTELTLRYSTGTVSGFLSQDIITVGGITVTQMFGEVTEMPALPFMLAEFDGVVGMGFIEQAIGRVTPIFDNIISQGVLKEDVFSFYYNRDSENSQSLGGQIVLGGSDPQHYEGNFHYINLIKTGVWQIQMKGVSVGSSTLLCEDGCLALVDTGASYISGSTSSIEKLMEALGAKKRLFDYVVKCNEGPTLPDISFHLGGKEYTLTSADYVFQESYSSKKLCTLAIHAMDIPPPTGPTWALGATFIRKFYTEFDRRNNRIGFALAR
With `Cc1cc(Cl)c(OCCOc2ccc(C3=C(C(=O)N(Cc4cccc(C)c4C)C4CC4)C4CNCC(C3)N4)cc2)c(Cl)c1` (stereo unspecified), half-maximal inhibition (IC50) was put at 0.16 nM.

The compound `CCCCNC(=O)C(CC(=O)C(CC1CCCCC1)NC(=O)C(Cc1cnc[nH]1)NC(=O)C(Cc1ccccc1)CS(=O)(=O)C(C)(C)C)C(C)C` (stereo unspecified) displayed an IC50 of 0.7 nM.

On to `CCCCNC(=O)C(C)CC(O)C(N)CC(C)(C)CC(=O)N1CC(C(=O)OC)Cc2ccccc21` (stereo unspecified), for which the IC50 stood at 0.8 nM.

Regarding `CCCCNC(=O)C(C)CC(O)C(N)CC(CNC(=O)c1cccc(OCCCOC)c1)C(C)C` (stereo unspecified), the IC50 stood at 0.9 nM.

On to `CC(C)(C)S(=O)(=O)CC(Cc1ccccc1)C(=O)NC(Cc1cnc[nH]1)C(=O)NC(CC1CCCCC1)C(O)C(O)C1CC1` (stereo unspecified), for which inhibition was half-maximal at 1 nM (IC50).

Take `COc1ccccc1COCCCOc1ccc(N2C(=O)CNCC2COC2=CC3C(=CC=CN3CCCO)C=C2)cc1` (stereo unspecified): inhibition was half-maximal at 37 nM (IC50).

The values above are taken from ChEMBL document CHEMBL1781915, “Potential virtual lead identification in the discovery of renin inhibitors: application of ligand and structure-based pharmacophore modeling approaches” (Eur J Med Chem, 2011).
